# Measurements taken from patent EP0140395A1, “Water soluble derivatives of 1-(2-hydroxyethyl)-2-methyl-5-nitro-imidazole having therapeutical activity, process for its preparation and related pharmaceutical compositions” (Pietro Isnardi & C. Spa, priority 1983, dated 1985).
# Assays:
# Trichomonas vaginalis = experiment: Minimum inhibiting concentration in five strains, in comparison with metronidazole; assay type: cell-based; settings: for MIC: average over five strains of Trichomonas vaginalis, metronidazole as 1 mg/ml solution in dimethyl sulfoxide, compound of the invention as 1 mg/ml water solution
# Description: The minimum inhibiting concentration (MIC) was investigated in five strains of Trichomonas vaginalis, in comparison with metronidazole.
# Metronidazole was tested in form of a solution in dimethyl sulfoxide at a concentration of 1 mg/ml whereas the compound of the invention was tested in form of a water solution at a concentration of 1 mg/ml.
# [1] = Solubility of the compound; assay type: physicochemical
# Kinetic tests in the rat = assay type: in vivo
# [2] = Toxicity (LD50) in the mouse; settings: in vivo
# Source text: (§1) The compound of the invention has been pharmacologically tested.
# (§2) As regards the toxicity the following results were found: […]
# [3] = Toxicity (LD50) in the rat; settings: in vivo
# Source text: as §1, §2
Structure (SMILES),MIC (Trichomonas vaginalis) [µg/mL],"solubility in anhydrous alcohols, acetone and chloroform ([1]; anhydrous alcohols, acetone and chloroform)",solubility in water ([1]; water),conversion into metronidazole (Kinetic tests in the rat; in the organism and in acidic environment),"dose excreted (Kinetic tests in the rat; urine, after parenteral administration, read-out: urinary excretion) [%]",LD50 ([2]; ip) [mg/kg],"LD50 ([2]; po, per os) [mg/kg]","microbiological activity (Trichomonas vaginalis; preliminary tests, compared with metronidazole)",LD50 ([3]; ip) [mg/kg],"LD50 ([3]; po, per os) [mg/kg]"
"Cc1ncc([N+](=O)[O-])n1CCO [metronidazole, 1-(2-hydroxyethyl)-2-methyl-5-nitro-imidazole]",5,–,–,–,–,–,–,–,–,–
"Cc1ncc([N+](=O)[O-])n1CCOC(=O)NCCCCC(N)C(=O)O (centres unmarked) [compound of the invention, N-(5-carboxy-5-aminopentan)-carbamic ester of 1-(2-hydroxyethyl)-2-methyl-5-nitro-imidazole]",2.5,insoluble,perfectly soluble in water,not converted into metronidazole neither in the organism nor in acidic environnment,< 30,> 4000,> 4000,greater microbiological activity,870,1620
